The first assay concerns the target T1, human CCR2 (Homo sapiens, UniProt P41597).
T1 construct: expressed in transfected cells; host or cells: Ba/F3 cells (membranes)
Put plainly: CCR2 Membrane Binding Assay (SPA radio-ligand binding, 125I-rhMCP-1). The following applies: membranes from Ba/F3 cells transfected with human CCR2; 0.03 nM 125I-rhMCP-1; 4 h room temperature. How it is done:
The radio-ligand binding assay was done using scintillation proximity assay (SPA) technology. Briefly, membranes (1 μg per assay point) from Ba/F3 cells transfected with human CCR2, and wheat germ agglutinin-coated SPA beads (80 μg per point; Amersham, Arlington Heights,Ill.), were pre-incubated for 30 min at room temperature in CCR2 buffer (50 mM HEPES (pH=7.4), 10 mM MgCl2, 10 mM NaCl, 1 mM CaCL2, 0.1% BSA,10 μg/ml Saponin). At this point pre-bound SPA bead, membrane complex was incubated at room temperature for 4 h with varying concentrations of punitive CCR2 antagonists (in 1% DMSO, final) and 0.03 nM ^125I-rhMCP-1 in CCR2 Buffer (S.A. 2200 Ci/mmol, PerkinElmer Life and Analytical Science, Boston, Mass.; NEX332). Binding competition was measured using a 1450 Microbeta Trilux counter(Wallac, Gaithersburg, Md.). Binding constants (IC50 and slope) were calculated using GraphPad Prism software(GraphPad Software, Inc., La Jolla Calif.).
T1 sequence (P41597 whole entry): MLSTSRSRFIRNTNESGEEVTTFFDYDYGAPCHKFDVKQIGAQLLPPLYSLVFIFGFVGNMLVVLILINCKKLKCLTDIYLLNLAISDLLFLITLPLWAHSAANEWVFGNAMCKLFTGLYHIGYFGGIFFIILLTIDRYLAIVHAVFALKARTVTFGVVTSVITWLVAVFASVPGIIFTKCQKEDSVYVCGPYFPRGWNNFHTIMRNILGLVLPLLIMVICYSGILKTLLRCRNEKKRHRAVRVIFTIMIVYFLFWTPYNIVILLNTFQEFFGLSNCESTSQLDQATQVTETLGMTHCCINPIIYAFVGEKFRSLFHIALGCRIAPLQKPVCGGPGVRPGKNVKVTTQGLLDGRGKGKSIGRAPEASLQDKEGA
As usually defined, the IC50 is the concentration needed to halve the response being measured. Higher therefore signals weaker potency in that assay. `CC(C)c1cc2ccc3[nH]c(C(=O)NC4CCN(CCN5CCCCCC5)CC4)cc3c2o1` [Compound 2] had a half-inhibitory concentration (IC50) of 5.4 nM.
`CC(C)COc1cccc2[nH]c(C(=O)NC3CCN(CCN4CCCCCC4)CC3)cc12` [Compound 10] showed a 50% inhibitory concentration (IC50) of 4 nM.
`O=C(NC1CCN(CCN2CCCCCC2)CC1)c1cc2c(OCc3ccccc3)cccc2[nH]1` [Compound 14] returned an IC50 of 12.5 nM.
The same measure, in the same setting: with `CC(C)COc1cc2c(c3[nH]c(C(=O)NC4CCN(CCN5CCCCCC5)CC4)cc13)CCC2` [Compound 16] the figure was 40 nM.
On the same count and under the same terms, to `O=C(NC1CCN(CCN2CCCCCC2)CC1)c1cc2c(ccc3cc(-c4ccccc4)oc32)[nH]1` [Compound 17] belongs 13 nM.

Still in this assay, the particulars now being: membranes from Ba/F3 cells transfected with human CCR2; 0.03 nM 125I-rhMCP-1; class symbols.
The compound `CC(C)c1cc2ccc3[nH]c(C(=O)N[C@H]4[C@@H]5CN(CCN6CCCCCC6)C[C@@H]54)cc3c2o1` [Compound 3] gave an IC50 of 51 to 200 nM.
Still for that read-out and setting: with `O=C(NC1CCN(CCN2CCCCCC2)CC1)c1cc2c(ccc3ccccc32)[nH]1` [Compound 4] the figure was 51 to 200 nM; with `Cc1cc2ccc3[nH]c(C(=O)NC4CCN(CCN5CCCCCC5)CC4)cc3c2o1` [Compound 5], 51 to 200 nM; with `O=C(NC1CCN(CCN2CCCCCC2)CC1)c1cc2c(cc(F)c3ccoc32)[nH]1` [Compound 6], 201 to 900 nM.
Same read-out and setting: to `O=C(NC1CCN(CCN2CCCCCC2)CC1)c1cc2c3c(c(F)cc2[nH]1)CCO3` [Compound 7] belongs 201 to 900 nM; to `Cc1c(C(=O)NC2CCN(CCN3CCCCCC3)CC2)[nH]c2ccc3ccccc3c12` [Compound 8], 201 to 900 nM; to `O=C(NC1CCN(CCN2CCCCCC2)CC1)c1cc2c(cc(F)c3ccccc32)[nH]1` [Compound 9], 51 to 200 nM.
On the same count and under the same terms, to `COc1cc2[nH]c(C(=O)NC3CCN(CCN4CCCCCC4)CC3)cc2c2ccccc12` [Compound 11] belongs 201 to 900 nM; to `COc1cccc2[nH]c(C(=O)NC3CCN(CCN4CCCCCC4)CC3)cc12` [Compound 12], 201 to 900 nM; to `O=C(NC1CCN(CCN2CCCCC2)CC1)c1cc2c(cc(F)c3ccoc32)[nH]1` [Compound 13], 201 to 900 nM.
For `CC(C)c1cc2ccc3[nH]c(C(=O)NC4CC45CCN(CCN4CCCCCC4)CC5)cc3c2o1` (stereo not shown) [Compound 15], the 50% inhibitory concentration (IC50) fell in the range of 51 to 200 nM.
On the same count and under the same terms, with `O=C(NC1CCN(CCN2CCCCCC2)CC1)c1cc2c3ccccc3ccc2n1Cc1ccccc1` [Compound 18] the figure was 201 to 900 nM.
On the same count and under the same terms, with `O=C(NC1[C@H]2CN(CCN3CCCCCC3)C[C@@H]12)c1cc2c(ccc3cc(-c4ccccc4)oc32)[nH]1` (stereo partly shown) [Compound 19] the figure was 51 to 200 nM; with `CCOc1cc2[nH]c(C(=O)NC3CCN(CCN4CCCCCC4)CC3)cc2c2ccccc12` [Compound 20], 51 to 200 nM.

These data come from patent US20140005174A1, “INDOLE DERIVATIVES USEFUL AS CCR2 ANTAGONISTS” (priority 2011, published 2014).
